# Laboratory results from patent US11059855B2, “Antimicrobial peptides and methods of making and using same” (priority 2017, dated 2021).
# Like-named read-outs stand apart in the source and are kept apart here. No end group written: not given here.
# Legend:
# [1] = Pore-size characterization by 3-kDa dextran release; format: biochemical; conditions: ‡Large pore for PG only
# [2] = system: S. aureus; experiment: Bacterial minimum inhibitory concentration (MIC), S. aureus; format: cell-based, Staphylococcus aureus; conditions: 75 μM maximum tested; NDA = not determinable
# [3] = Circular dichroism secondary structure (Dichroweb), with POPG; format: physicochemical
# [4] = cited from earlier work
# [5] = ANTS/DPX leakage assay, POPC; format: biochemical; conditions: P:L = 1:1000, pH 7 phosphate buffer
# [6] = system: methicillin-resistant Staphylococcus aureus (MRSA); format: cell-based; conditions: 75 μM maximum tested; NDA = not determinable
# [7] = Circular dichroism secondary structure (Dichroweb), with POPC; format: physicochemical
# [8] = Tryptophan fluorescent binding assay
# From the text: To further investigate why some peptides (i.e. 7D12, 7G6, 11D12, 24F1, and 28H6) show selectivity for membrane types we measured peptide binding and secondary structural changes to vesicles containing binary mixtures of POPC and POPG lipids. FIGS. 10a-10e show the changes in the CD and tryptophan fluorescence spectra for these peptides upon addition of LUVs for whom the ratio of POPG was elevated from 0 to 100%. […] Consistent with the POPC/POPG leakage assay, these lipid selective peptides show little or no binding to POPC, which bind strongly to POPG. […] All other peptides have tryptophan fluorescence peaks around 350 nm, indicative of monomeric peptides. Addition of LUVs to 28H6 results in higher intensity and smaller width of the peak indicative of membrane binding. Remarkably, the CD spectra of 28H6 change from a helical aggregate in solution or POPC LUVs, to beta-strand conformations in the presence of anionic POPG lipids. Increasing the temperature of 28H6 with POPG vesicles can destabilize the beta-strand structure and reverse it to helix as the conformation of 28H6 with POPC (Table 8).
# [9] = 3-kDa dextran macromolecule release assay, POPG; format: biochemical; conditions: P:L = 1:1000, pH 7 phosphate buffer
# [10] = Membrane selectivity from high-throughput dye leakage screen; format: biochemical; conditions: PC = POPC, PG = POPG
# From the text: This detects and quantifies the release of a small fluorescent dye (ANTS/DPX; MW=˜400 Da) encapsulated in LUVs after addition of library peptides. Neutral POPC LUVs serve as a simple model for mammalian membranes, while charged POPG LUVs mimic bacterial membranes enriched in anionic lipids.
# [11] = Circular dichroism secondary structure (Dichroweb), peptide only; format: physicochemical; conditions: 20 °C
# [12] = system: P. aeruginosa; experiment: Bacterial minimum inhibitory concentration (MIC), P. aeruginosa; format: cell-based, Pseudomonas aeruginosa; conditions: 75 μM maximum tested; NDA = not determinable
# [13] = ANTS/DPX leakage assay, POPG; format: biochemical; conditions: P:L = 1:1000, pH 7 phosphate buffer
# [14] = system: Escherichia coli biofilm; experiment: Activity against biofilm, E. coli; format: cell-based; conditions: 67-150 μM peptide, 3 hr treatment
# Procedure: (§1) Selected analogues were tested with each (13A). Escherichia coli biofilm, (13B). Staphylococcus aureus biofilm, and (13C) Pseudomonas aeruginosa biofilm.
# (§2) However, most of the LDKA analogues fail to treat S. aureus and P. aeruginosa biofilms. Only K7H and 7F3 are capable to reduce S. aureus biofilms by ˜50% with 100 μM peptide concentration, and none of the analogues work against P. aeruginosa biofilms (FIGS. 13a-13c).
# [15] = 3-kDa dextran macromolecule release assay, POPC; format: biochemical; conditions: P:L = 1:1000, pH 7 phosphate buffer
# Procedure: Several different size dextrans were prepared and labelled with both TAMRA and biotin. Conjugated dextran was entrapped in POPC LUVs as described above. External dextran was removed by incubation with immobilized streptavidin. Streptavidin labelled with an Alexa-488 fluorophore was added during the leakage experiment with the peptide as previous described.^5 The sample was then incubated for 3 hr before measuring Alexa-488 fluorescence. A control without added peptide served as the 0% leakage signal and addition of 0.05% vol. Triton X-100 was used to determine 100% leakage.
# [16] = system: ciprofloxacin-resistant E. coli
# Procedure: “N.D.” means “not determined”.
# Ceftazidime is active on the bacteria's cell wall and interferes with bacterial cell wall formation.^38,39 Ciprofloxacin is able to inhibit DNA gyrase, type II topoisomerase, and topoisomerase IV to separate bacterial DNA and inhibits cell division.^40 Streptomycin and gentamicin are antibiotics that can interrupt and inhibit protein synthesis.^41,42 E. coli strain ATCC 25922 cultures were grown in the presence of each of these antibiotics at elevated concentration for 10 generations.
# [17] = system: Staphylococcus aureus biofilm; experiment: Activity against biofilm, S. aureus; format: cell-based; conditions: 100 μM peptide concentration, 3 hr treatment
# Procedure: as §1, §2
# [18] = Hemolysis assay; format: cell-based, human; conditions: human
# Procedure: (§3) Fresh human red blood cells were obtained from Interstate Blood Bank, Inc., and thoroughly washed in PBS until the supernatant was clear. hRBC concentration was determined using a standard hemocytometer. In hemolysis assays serial dilutions of peptide were prepared, followed by the addition of 2×10^8 hRBC/mL. After incubation for 1 hr at 37° C. the cells were centrifuged and the released hemoglobin was measured by optical absorbance of the heme group (410 nm). Negative control was buffer only (0% lysis), and the positive control was 20 μM melittin and distilled water (100% lysis). The samples were done in triplicate.
# [19] = system: human red blood cells; experiment: Hemolysis assay; format: cell-based
# Procedure: as §3
# [20] = provided by the distributor, GenScript
Substance,Pore size [1],"Peptide-POPG, Helix ([3]; 20 °C)","Peptide-POPG, Strand ([3]; 20 °C)","Peptide-POPG, Helix ([3]; 45 °C)","Peptide-POPG, Strand ([3]; 45 °C)","Peptide-POPG, Helix ([3]; 70 °C)","Peptide-POPG, Strand ([3]; 70 °C)","Peptide-POPG, Helix ([3]; 95 °C)","Peptide-POPG, Strand ([3]; 95 °C)","ANTS/DPX release, POPC [5]","Peptide-POPC, Helix ([7]; 20 °C)","Peptide-POPC, Strand ([7]; 20 °C)","Peptide-POPC, Helix ([7]; 45 °C)","Peptide-POPC, Strand ([7]; 45 °C)","Peptide-POPC, Helix ([7]; 70 °C)","Peptide-POPC, Strand ([7]; 70 °C)","Peptide-POPC, Helix ([7]; 95 °C)","Peptide-POPC, Strand ([7]; 95 °C)","3-kDa Dextran release, POPG [9]",Membrane selectivity (POPC vs POPG vesicles) [10],further results
GLLDDAKLLAKLAGW-AMIDE (GLLDDAKLLAKLAGW-NH2) [Peptide 7D12],Small,78%,2%,66%,3%,48%,6%,31%,13%,6%,30%,20%,26%,21%,27%,22%,22%,24%,17%,PG > PC,"Minimum Inhibitory Concentration, S. aureus [2]: no activity and NDA; Solubility, DPBS pH 7.1 ([4]; pH 7.1): <0.1 mg/mL; Minimum Inhibitory Concentration, MRSA [6]: NDA; Binding onto POPC [8]: does not bind; Peptide-only, Strand [11]: 11%; Minimum Inhibitory Concentration, P. aeruginosa [12]: no activity and NDA; ANTS/DPX release, POPG [13]: 103%"
H-GLADLAKLLLKLLGW-NH2 [Peptide 7F3],Small,52%,12%,58%,7%,66%,2%,76%,2%,88%,82%,1%,77%,2%,76%,3%,70%,4%,46%,Non-selective,"Solubility, DMSO [4, 20]: 15 mg/mL; Solubility, DPBS pH 7.1 [4, 20]: <0.1 mg/mL; Solubility, Ultrapure Water [4, 20]: 5 mg/mL; Elimination of E. coli biofilm [14]: ~50%; 3-kDa Dextran release, POPC [15]: -3%; MIC, ciprofloxacin-resistant E. coli [16]: completely fail; Reduction of S. aureus biofilms [17]: ~50%; Peptide-only, Helix [11]: 75%; Peptide-only, Strand [11]: 4%; Minimum Inhibitory Concentration, P. aeruginosa [12]: NDA; ANTS/DPX release, POPG [13]: 106%; HC50 at 1 hr [18]: 1100 nM; Hemolytic activity (in words) [19]: significantly haemolytic"
